{
  "source": "patent US12336980B2",
  "about": "“Dosing regimen for a selective S1P1 receptor agonist” (Vanda Pharmaceuticals Inc., priority 2014, dated 2025)",
  "format_in_all_cases": "in vivo, human",
  "key": {"[1]": {"test_system": "circulating total lymphocyte count", "experiment": "Total lymphocyte count by hemocytometry", "conditions": "for total lymphocyte count, mean percentage change from baseline (±SD): Day 3; for total lymphocyte count, decrease from baseline: Day 6", "description": "The enrolled subjects came to the study center for each treatment period on Day −2 and participated in a run-in (all study procedures performed without study drug administration) on Day −1. On Day 1, subjects were randomized to one of the two possible sequences of the two up-titration regimens A and B (ratio 1:1). On Day 1, all subjects received placebo; the first study drug administration (or its matching placebo) occurred on Day 2. Regimen A consisted of the novel up-titration regimen: ponesimod was administered once daily (o.d.) orally at a dose of 2 mg on Day 2 and Day 3, 3 mg on Day 4 and Day 5, 4 mg on Day 6 and Day 7, 5 mg on Day 8, 6 mg on Day 9, 7 mg on Day 10, 8 mg on Day 11, 9 mg on Day 12, 10 mg on Day 13 and Day 14, and 20 mg on Day 15. The reference regimen (regimen B) was based on previous studies (Olsson T. et al., Oral ponesimod in relapsing-remitting multiple sclerosis: a randomised phase II trial. J Neurol Neurosurg Psychiatry. 2014; 85 (11): 1198-1208; and Vaclavkova A. et al., Oral ponesimod in patients with chronic plaque psoriasis: a randomised, double-blind, placebo-controlled phase 2 trial. Lancet. 2014; 384 (9959): 2036-2045) and consisted of an o.d. oral administration of ponesimod at a dose of 10 mg for 7 days (i.e., from Day 2 to Day 8) and 20 mg on Day 9. From Day 10 to Day 15 subjects received o.d. the matching placebo. In the placebo group (1:1 sex ratio), subjects received placebo from Day 1 to Day 15. All treatments were administered at the same time in the morning (fasted condition) with approximately 240 mL of water. Blood samples of about 3 mL were collected in ethylene di-amine tetra acetic acid tubes at pre-dose and 3 h after study drug administration from Day 1 to Day 15 in each treatment period. After centrifugation, plasma was transferred into a polypropylene tube and stored at −21° C. (±5° C.) pending analysis. Plasma concentrations of ponesimod were determined using a validated liquid chromatography coupled to tandem mass spectrometry assay with a lower limit of quantification of 1 ng/mL (Brossard P. et al., Pharmacokinetics and pharmacodynamics of ponesimod, a selective S1 P1 receptor modulator, in the first-in-human study. British journal of clinical pharmacology. 2013; 76 (6): 888-896). Trough samples were taken on Day −1, Day 3, Day 6, Day 9, Day 12, and Day 15 of each treatment period and at EOFP and EOS to assess total lymphocyte count by hemocytometry. Cardiodynamic and pharmacodynamic data are expressed as mean±SD. Repeated measure one-way ANOVAs followed by Tukey's multiple-comparisons tests were used to perform inter-group (i.e., placebo vs. regimen A vs. regimen B) comparisons. Student's t-tests were employed to perform intra-group (baseline vs. treatment) comparisons. Differences were considered to be statistically significant at p <0.05. SAS® version 9.2 (SAS Institute, Cary, NC, USA) was used for the statistical analysis and descriptive statistics of clinical data."}, "[2]": {"test_system": "peripheral blood lymphocytes", "experiment": "Repeated daily oral dosing, number of peripheral blood lymphocytes (background finding)", "conditions": "repeated daily oral dosing of 5 mg or more to humans"}, "healthy subjects": {"test_system": "healthy subjects", "experiment": "Vital signs, supine blood pressure", "conditions": "first administration, mean±SD", "description": "The enrolled subjects came to the study center for each treatment period on Day −2 and participated in a run-in (all study procedures performed without study drug administration) on Day −1. On Day 1, subjects were randomized to one of the two possible sequences of the two up-titration regimens A and B (ratio 1:1). On Day 1, all subjects received placebo; the first study drug administration (or its matching placebo) occurred on Day 2. Regimen A consisted of the novel up-titration regimen: ponesimod was administered once daily (o.d.) orally at a dose of 2 mg on Day 2 and Day 3, 3 mg on Day 4 and Day 5, 4 mg on Day 6 and Day 7, 5 mg on Day 8, 6 mg on Day 9, 7 mg on Day 10, 8 mg on Day 11, 9 mg on Day 12, 10 mg on Day 13 and Day 14, and 20 mg on Day 15. The reference regimen (regimen B) was based on previous studies (Olsson T. et al., Oral ponesimod in relapsing-remitting multiple sclerosis: a randomised phase II trial. J Neurol Neurosurg Psychiatry. 2014; 85 (11): 1198-1208; and Vaclavkova A. et al., Oral ponesimod in patients with chronic plaque psoriasis: a randomised, double-blind, placebo-controlled phase 2 trial. Lancet. 2014; 384 (9959): 2036-2045) and consisted of an o.d. oral administration of ponesimod at a dose of 10 mg for 7 days (i.e., from Day 2 to Day 8) and 20 mg on Day 9. From Day 10 to Day 15 subjects received o.d. the matching placebo. In the placebo group (1:1 sex ratio), subjects received placebo from Day 1 to Day 15. All treatments were administered at the same time in the morning (fasted condition) with approximately 240 mL of water.\nSafety and tolerability were evaluated by monitoring adverse events (AEs), vital signs measurements (supine blood pressure), pulmonary function tests (PFTs; i.e., FEV1 and FVC), clinical laboratory, physical, and neurological examinations. Recording of blood pressure was performed at the same time-points as 12-lead ECG."}},
  "data": [
    {"smiles": "CCC/N=C1\\S/C(=C\\c2ccc(OC[C@H](O)CO)c(Cl)c2)C(=O)N1c1ccccc1C", "note": "[ponesimod, (R)-5-[3-chloro-4-(2,3-dihydroxy-propoxy)-benz[Z]ylidene]-2-([Z]-propylimino)-3-o-tolyl-thiazolidin-4-one]", "values": [
      {"measurement": "recovery of individual total lymphocyte count", "setting": "[1]; at EOFP and EOS, normal range i.e. 80% of baseline", "value": "returned to within the normal range"},
      {"measurement": "total lymphocyte count, mean percentage change from baseline (±SD)", "setting": "[1]; regimen A", "value": "−11.6±10.2", "unit": "%"},
      {"measurement": "total lymphocyte count, decrease from baseline", "setting": "[1]; regimen A", "value": "−15.0±14.4", "unit": "%"},
      {"measurement": "total lymphocyte count, decrease following the last dose of 10 mg", "setting": "[1]; regimen A, Day 15 before administration of the dose of 20 mg", "value": "−50.8±12.1", "unit": "%"},
      {"measurement": "total lymphocyte count, mean percentage change from baseline (±SD)", "setting": "[1]; regimen B", "value": "−28.9±12.2", "unit": "%"},
      {"measurement": "total lymphocyte count, decrease from baseline", "setting": "[1]; regimen B", "value": "−46.5±12.3", "unit": "%"},
      {"measurement": "total lymphocyte count, decrease following the last dose of 10 mg", "setting": "[1]; regimen B, Day 9 before administration of the dose of 20 mg", "value": "−52.3±11.0", "unit": "%"},
      {"measurement": "reduction in the number of peripheral blood lymphocytes", "setting": "[2]", "value": "consistent, sustained, and dose-dependent reduction"},
      {"measurement": "decrease in DBP", "setting": "healthy subjects; regimen A", "value": "−7±5.3", "unit": "mmHg"},
      {"measurement": "decrease in SBP", "setting": "healthy subjects; regimen A", "value": "−4±4.4", "unit": "mmHg"},
      {"measurement": "decrease in DBP", "setting": "healthy subjects; regimen B", "value": "−10±4.4", "unit": "mmHg"},
      {"measurement": "decrease in SBP", "setting": "healthy subjects; regimen B", "value": "−5±7.7", "unit": "mmHg"}
    ]}
  ]
}
